The values below are quoted from earlier work in patent US11865247B2, “Inhalers and related methods” (Norton (Waterford) Limited, priority 2017, dated 2024).

Turning to `FCC(F)(F)F` [HFA134a, 1,1,1,2-tetrafluoroethane], for the setting “as liquid at 25° C.”, the surface tension entry is listed as “about 8 mN/m”. For the same molecule, the vapor pressure (at 20° C.) is 572 kpa.
